Assays:
Type in all cases: biochemical
[1] = tested on: human pancreatic lipase; experiment: pH dependence of human pancreatic lipase activity in the presence of bile acids (diglyceride substrate, UV method); conditions: pooled serum; non-conjugated bile acid singly, 24 mmol/L in R-1; pH 7.2-8.5
Protocol: After weighing 1,2-dioleoyl glycerol (DODG) (manufactured by Nippon Fine Chemical Co., Ltd.) to attain a concentration of 9.32 mmol/L when dissolved, 1% polyoxyethylene (10) nonyl phenyl ether (NPE) (manufactured by Wako Pure Chemical Industries Ltd.) containing 1.66 mmol/L of MES (manufactured by Dojindo Laboratories) was added thereto to be dissolved therein by stirring at 37° C. for 2 hours, and the resultant was allowed to stand still in ice for 2 hours or more. The thus obtained solution was used as a substrate original liquid.
The above-described diglyceride original liquid was used for preparing a “substrate stock solution” having the following composition:
A “first reaction solution (R-1)” having the following composition was prepared:
A “second reaction solution (R-2)” having the following composition was prepared:
A “second reaction solution (R-2) for sample blank” having the following composition was prepared:
(§1) A mixture of the substrate stock solution and the R-1 in a proportion of 1:2 was used as a first reagent. The R-2 was directly used as a second reagent. As a sample, pooled serum or a control sample (a control containing a pancreatic lipase) was used. A proportion in amount among the sample, the first reagent and the second reagent was set as sample:first reagent:second reagent of 0.01 ml:0.18 ml:0.06 ml. The sample was added to the first reagent, the resultant mixture was heated at 37° C. for 5 minutes, the second reagent was added thereto, and a change rate of an absorbance at 340 nm based on reduced NADP was obtained at 37° C. from 3 minutes after the addition of the second reagent to 4 minutes after the addition, and then, the lipase activity was calculated by using a molecular extinction coefficient of 6300 L/mol·cm of the reduced NADP. Besides, as a sample blank, saline was used instead of a sample, an absorbance was measured by using the reagent for sample blank obtained by removing MGLPII from the second reagent, and a difference between the thus measured two values was defined as an enzyme activity value. For the measurement, Hitachi automatic analyzer Model H7170 or H7080 was used.
As a conjugated bile acid to be added to the R-1, sodium taurodeoxycholate (NaTDCA), sodium glycodeoxycholate (NaGDCA), sodium glycochenodeoxycholate (NaGCDCA), sodium taurochenodeoxycholate (NaTCDCA), sodium glycocholate (NaGCA), sodium taurocholate (NaTCA) and sodium tauroursodeoxycholate (NaTUDCA) all in a concentration of 40 mmol/L were selected, the R-1 was adjusted, by using BES (manufactured by Dojindo Laboratories) respectively to pH 6.8, 7.0, 7.2, 7.4, 7.8, and 8.0, and the human pancreatic lipase activity was measured by using these. The pH of the R-2 was adjusted to be equal to that of the R-1.
It is noted that the concentration of each non-conjugated bile acid was set to be 24 mmol/L in the R-1. Besides, BES was used for adjusting pH to 7.2, 7.6, 7.8 and 8.0, and Bicine was used for adjusting pH to 8.2 and 8.5.
(§2) Similarly to Example 1, a mixture of the substrate stock solution and the R-1 in a proportion of 1:2 was used as a first reagent. Except for this, the measurement was performed in the same manner as in Example 1.
Besides, NaTCA was also combined with a conjugated bile acid, NaTDCA, to examine the pH for giving a maximum value of the human pancreatic lipase activity (the apparent optimum pH). It is noted that a BES buffer was used for adjusting pH to 6.9, 7.2 and 7.7, and a Bicine buffer was used for adjusting pH to 7.95 and 8.2. In each of the combinations of NaGCA/NaDCA, NaTCA/NaDCA, NaTUDCA/NaDCA and NaTCA/NaTDCA, the concentration of each bile acid was set to 20 mmol/L in the R-1. With respect to the combination of NaTCA and NaTDCA, a concentration of 40 mmol/L of NaTDCA was used as a control.
The compositions of the reagents and the measurement operation were the same as those of Example 2.
Target sequence in this assay (P16233 17-465): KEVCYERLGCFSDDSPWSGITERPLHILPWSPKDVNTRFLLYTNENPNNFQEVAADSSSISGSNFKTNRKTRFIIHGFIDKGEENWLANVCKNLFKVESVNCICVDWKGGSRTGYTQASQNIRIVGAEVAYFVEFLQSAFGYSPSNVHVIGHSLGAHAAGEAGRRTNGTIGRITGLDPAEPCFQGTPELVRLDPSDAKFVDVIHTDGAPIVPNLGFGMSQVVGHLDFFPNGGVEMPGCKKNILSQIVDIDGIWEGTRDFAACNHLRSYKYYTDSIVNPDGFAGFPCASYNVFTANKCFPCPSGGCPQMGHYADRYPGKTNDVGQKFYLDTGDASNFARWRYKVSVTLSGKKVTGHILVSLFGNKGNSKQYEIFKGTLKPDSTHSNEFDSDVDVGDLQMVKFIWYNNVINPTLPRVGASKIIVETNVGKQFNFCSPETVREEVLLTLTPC
Target sequence in this assay (P02703 23-112 partner): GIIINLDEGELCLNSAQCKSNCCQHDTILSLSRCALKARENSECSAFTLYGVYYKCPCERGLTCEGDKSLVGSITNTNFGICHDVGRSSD

[2] = tested on: human pancreatic lipase; experiment: lipase activity measured in control, normal and heparin-administered samples with each reagent (1,2-dioleoyl glycerol, UV method; Liquitech Lipase Color II for verification); conditions: NaDCA pH 8.15, other bile salts pH 7.0
Protocol: as §1, §2
A commercially available reagent for a resorufin colorimetric method, “Liquitech Lipase Color II” manufactured by Roche Diagnostics using 1,2-O-dilauryl-rac-glycerol-3-glutaric acid-(6-methylresorufin)ester (DGGR), which is regarded not to be influenced by a non-pancreatic lipase, such as a lipoprotein lipase or a hepatic lipase, appearing in blood due to administration of heparin, was used for verifying the effect of the present example. “Liquitech Lipase Color II” was used in accordance with the package insert, and a special calibrator was used for calculating the enzyme activity. […] The concentration of each bile acid used in the present example was set to be the same as that in the comparative example.
As samples, a control, non-heparin-administered samples (normal samples), and heparin-administered samples were used.
The compositions of the reagents were the same as those of Example 2. As a comparative example, NaDCA (in a concentration of 40 mmol/L in the R-1) was used as the bile acid, and the reaction solution was adjusted to pH 8.15 (by the Bicine buffer) for measuring a heparin-administered sample.
It is noted that CRM-001b containing a human pancreatic recombinant lipase dissolved not in distilled water but in a pooled serum was used as the calibrator to calculate the lipase activity.
As a bile acid of the present example and a reference example, NaTDCA was selected, and the pH dependence with the pH of a reaction solution changed in a range of 6.2 to 7.6 was examined. It is noted that a case of pH 7.6 was used as the reference example. An MES buffer was used for adjusting pH to 6.2 and 6.4, and the BES buffer was used for adjusting the other pHs. As samples, (six) control samples (controls each containing a pancreatic lipase) and (nine) heparin-administered samples were used. As a comparative example, NaDCA (in a concentration of 40 mmol/L in the R-1) was used as the bile acid, and a reaction solution having pH 8.15 (the Bicine buffer) was used. Besides, “Liquitech Lipase Color II” manufactured by Roche Diagnostics was used for verifying the effect of the present example.

[3] = tested on: human pancreatic lipase; experiment: pH dependence of human pancreatic lipase activity in the presence of bile acids (diglyceride substrate, UV method); conditions: human pooled serum; pH changed between 7.4 and 8.4 (Example 12)
Target sequence in this assay (P16233 17-465): as the sequence (P16233 17-465) above
Target sequence in this assay (P02703 23-112 partner): as the sequence (P02703 23-112 partner) above

Substance: sodium deoxycholate [NaDCA]
- pH for giving a maximum value of the activity (apparent optimum pH) [1]: about 8.2
- lipase activity (Table 1) ([2]; Normal sample 1): 39.1 U/L
- lipase activity (Table 1) ([2]; Normal sample 2): 95.0 U/L
- lipase activity (Table 1) ([2]; Normal sample 3): 46.6 U/L
- lipase activity (Table 1) ([2]; Normal sample 4): 43.5 U/L
- lipase activity (Table 1) ([2]; Normal sample 5): 40.7 U/L
- lipase activity (Table 1) ([2]; sample Heparin 1): 76.8 U/L
- lipase activity (Table 1) ([2]; sample Heparin 2): 86.7 U/L
- lipase activity (Table 1) ([2]; sample Heparin 3): 112.9 U/L
- lipase activity (Table 1) ([2]; sample Heparin 4): 101.4 U/L
- lipase activity (Table 1) ([2]; sample Heparin 5): 68.5 U/L
- lipase activity (Table 1) ([2]; sample Heparin 6): 69.2 U/L
- lipase activity (Table 1) ([2]; sample Heparin 7): 138.3 U/L
- lipase activity (Table 1) ([2]; sample Heparin 8): 126.0 U/L
- lipase activity (Table 1) ([2]; sample Heparin 9): 168.8 U/L
- lipase activity (Table 1) ([2]; sample PRECINORM): 51.0 U/L
- lipase activity (Table 1) ([2]; sample PRECIPATH): 128.0 U/L
- pH for giving a maximum value of the human pancreatic lipase activity [3]: about 8.2
